Common to all, as to assay type: cell-based
The target of one assay is T1, G2019S LRRK2 (Homo sapiens, UniProt Q5S007, G2019S).
T1 construct: expressed in transfected cells; host or cells: HEK293 (ATCC CRL-1573), transient transfection, mammalian expression vector with ubiquitin promoter
The assay can be described thus: LRRK2 degradation assay, HiBit-tagged G2019S LRRK2 expressed from plasmid in HEK293 cells (Nano-Glo Dual-Luciferase). The settings on record: 24 hours. An excerpt: (§1) Exemplary Assay for Testing LRRK2 Degradation Driven by Exemplary Hetero-Bifunctional Compounds Designed to Target LRRK2
(§2) The assay measures the degradation of wildtype and G2019S LRRK2 tagged with a HiBit tag on the C-terminus of the protein that was expressed from a mammalian expression vector, driven by the ubiquitin promoter in HEK293 cells. Each compound dose-response was repeated on two separate days, on three separate plates each day.
(§3) Plasmid Preparation. Transfection mixes were assembled as follows and incubated for 30 minutes at room temperature. In a 15 mL tube, 5.25 mL Opti-MEM (no additions) was mixed with 17 μL Firefly Luciferase plasmid at 1 μg/μL and 158 μL WT plasmid DNA at 1 μg/μL (175 μg total DNA) were mixed by flicking. In a new 15 mL tube, 5.25 mL OptiMEM was mixed with 17 μL Firefly Luciferase plasmid at 1 μg/μL and 158 μL G2019S plasmid DNA at 1 μg/μL (175 μg total DNA) were mixed by flicking. X-tremeGene HP was mixed thoroughly using a vortex. Next, 175 μL was added to each tube and flicked to mix. Both tubes were left to incubate for 30 minutes at room temperature.
(§4) While the transfection mixes were incubating, HEK293 cells (acquired from ATCC; ATCC CRL-1573) were harvested with trypsin. Once cells are detached, the cells were resuspended in 12 mL OptiMEM+5% FBS and transferred to a 50 mL tube. The cells were mixed well and counted. Using OptiMEM+5% FBS, the cells were diluted in two 250 mL conical tubes at 0.71×10^6 cells/mL in 70 mL. One tube was labeled “WT” and the other “G2019S”. The WT and G2019S transfection mixes were added dropwise to the corresponding 250 mL tubes. The tubes were mixed first by pipetting then by swirling. The tubes were incubated at room temperature for at least 5 minutes.
(§5) Each tube was swirled before dispensing and after every three plates. Seventy microliters of cells were dispensed with WT or G2019S DNA to seven plates each. Three plates of each were tested with compound plate one (preparation described below) and three plates of each were tested with compound plate two (preparation described below). The first plate from each set served as a “prime” plate and was not used to test compounds. Each plate was incubated in the hood for 10 minutes before placing in the 37° C. incubator for 24 hours.
(§6) Preparation of Compound and Assay Plates. Two compound plates were made using 96 well polypropylene plates. Compounds were made up at 10 mM and were diluted to 1 mM in 30 μL. Each dose response curve included a well of DMSO, as a negative control and for normalization, and a well of 0.5 μM of Compound 4 as a positive control. In addition to seven test compounds, each plate also included a dose response of Compound 4. The compound plates were spun down along at 1200 rpm for 2 minutes.
(§7) The two compound plates were then mixed and 2 μL was diluted in intermediate plates having 248 μL of Opti-Mem in each well. Next, 10 μL diluted compounds from the intermediate plates were added to each test plate (three WT and three G2019S plates per compound plate for a total of 12 assay plates). The plates were incubated for 24 hours at 37° C.
(§8) All assay plates and all Nano-Glo Dual-Luciferase Reporter Assay System components (except for the DLR substrate) were equilibrated to room temperature. Next, the luciferase buffer was mixed with the lyophilized amber bottle until fully dissolved, and 75 μL of the luciferase mixture was added to each well of each assay plate. The assay plates were incubated for 10 minutes at room temperature with shaking for at least 5 minutes, and then read on a plate reader.
(§9) Developing Plates and Analyzing Data. One milliliter of DLR substrate and 1 mL LgBiT Protein were added to the Stop and Glo buffer, and 75 μL of the mixture was added to each well of each plate. Optically clear seals were added to each plate and each plate was incubated for 20 minutes with shaking for at least 10 minutes, and then read on a plate reader. […]
In general terms: With HiBiT, luminescence reflects the tagged protein that the partner subunit can reach.

The target of a further assay is T2, wildtype LRRK2 (Homo sapiens, UniProt Q5S007).
T2 construct: expressed in transfected cells; host or cells: HEK293 (ATCC CRL-1573), transient transfection, mammalian expression vector with ubiquitin promoter
The assay can be described thus: LRRK2 degradation assay, HiBit-tagged wildtype LRRK2 expressed from plasmid in HEK293 cells (Nano-Glo Dual-Luciferase). Conditions: 24 hours; for Dmax: read-out: **WT Dmax (%); for DC50: read-out: *WT DC50.
Description: as §1, §2, §3, §4, §5, §6, §7, §8, §9

Assay [1] addresses T3, LRRK2 (endogenous, HiBit tagged) (Homo sapiens, UniProt Q5S007).
T3 construct: endogenous in cells; host or cells: HEK293 cells with HiBit knock-in at the endogenous LRRK2 locus, stably expressing firefly luciferase
The assay can be described thus: Endogenous LRRK2 degradation assay, endogenous gene C-terminally HiBit-tagged in HEK293 cells (Nano-Glo Dual Luciferase). The settings on record: endogenous HiBit-tagged LRRK2 in HEK293 cells. The procedure, abridged:
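LRRK2-HiBit quantified via Nano-Glo Dual Luciferase in HEK293 knock-in cells co-expressing firefly luciferase, after 24 h exposure to compound (1 μM final top, 1:3, 11 points). Values normalised to DMSO median per plate and curve-fitted; Alamar Blue viability run alongside.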

Where [2] appears, read: HiBit-tagged G2019S LRRK2, HEK293 cells.
[3] abbreviates: HiBit-tagged wildtype LRRK2, HEK293 cells.
The mark [4] stands for this setting: HiBit-tagged G2019S LRRK2 in HEK293 cells.
[5] abbreviates: HiBit-tagged wildtype LRRK2 in HEK293 cells.
The mark [6] stands for this setting: 24 hours treatment, read-out: Endogenous WT DC50.
Setting [7] is: 24 hours treatment, read-out: Endogenous WT Dmax.

Read-outs that look alike come from different tables or passages of the source.

T1 sequence (Q5S007 whole entry G2019S): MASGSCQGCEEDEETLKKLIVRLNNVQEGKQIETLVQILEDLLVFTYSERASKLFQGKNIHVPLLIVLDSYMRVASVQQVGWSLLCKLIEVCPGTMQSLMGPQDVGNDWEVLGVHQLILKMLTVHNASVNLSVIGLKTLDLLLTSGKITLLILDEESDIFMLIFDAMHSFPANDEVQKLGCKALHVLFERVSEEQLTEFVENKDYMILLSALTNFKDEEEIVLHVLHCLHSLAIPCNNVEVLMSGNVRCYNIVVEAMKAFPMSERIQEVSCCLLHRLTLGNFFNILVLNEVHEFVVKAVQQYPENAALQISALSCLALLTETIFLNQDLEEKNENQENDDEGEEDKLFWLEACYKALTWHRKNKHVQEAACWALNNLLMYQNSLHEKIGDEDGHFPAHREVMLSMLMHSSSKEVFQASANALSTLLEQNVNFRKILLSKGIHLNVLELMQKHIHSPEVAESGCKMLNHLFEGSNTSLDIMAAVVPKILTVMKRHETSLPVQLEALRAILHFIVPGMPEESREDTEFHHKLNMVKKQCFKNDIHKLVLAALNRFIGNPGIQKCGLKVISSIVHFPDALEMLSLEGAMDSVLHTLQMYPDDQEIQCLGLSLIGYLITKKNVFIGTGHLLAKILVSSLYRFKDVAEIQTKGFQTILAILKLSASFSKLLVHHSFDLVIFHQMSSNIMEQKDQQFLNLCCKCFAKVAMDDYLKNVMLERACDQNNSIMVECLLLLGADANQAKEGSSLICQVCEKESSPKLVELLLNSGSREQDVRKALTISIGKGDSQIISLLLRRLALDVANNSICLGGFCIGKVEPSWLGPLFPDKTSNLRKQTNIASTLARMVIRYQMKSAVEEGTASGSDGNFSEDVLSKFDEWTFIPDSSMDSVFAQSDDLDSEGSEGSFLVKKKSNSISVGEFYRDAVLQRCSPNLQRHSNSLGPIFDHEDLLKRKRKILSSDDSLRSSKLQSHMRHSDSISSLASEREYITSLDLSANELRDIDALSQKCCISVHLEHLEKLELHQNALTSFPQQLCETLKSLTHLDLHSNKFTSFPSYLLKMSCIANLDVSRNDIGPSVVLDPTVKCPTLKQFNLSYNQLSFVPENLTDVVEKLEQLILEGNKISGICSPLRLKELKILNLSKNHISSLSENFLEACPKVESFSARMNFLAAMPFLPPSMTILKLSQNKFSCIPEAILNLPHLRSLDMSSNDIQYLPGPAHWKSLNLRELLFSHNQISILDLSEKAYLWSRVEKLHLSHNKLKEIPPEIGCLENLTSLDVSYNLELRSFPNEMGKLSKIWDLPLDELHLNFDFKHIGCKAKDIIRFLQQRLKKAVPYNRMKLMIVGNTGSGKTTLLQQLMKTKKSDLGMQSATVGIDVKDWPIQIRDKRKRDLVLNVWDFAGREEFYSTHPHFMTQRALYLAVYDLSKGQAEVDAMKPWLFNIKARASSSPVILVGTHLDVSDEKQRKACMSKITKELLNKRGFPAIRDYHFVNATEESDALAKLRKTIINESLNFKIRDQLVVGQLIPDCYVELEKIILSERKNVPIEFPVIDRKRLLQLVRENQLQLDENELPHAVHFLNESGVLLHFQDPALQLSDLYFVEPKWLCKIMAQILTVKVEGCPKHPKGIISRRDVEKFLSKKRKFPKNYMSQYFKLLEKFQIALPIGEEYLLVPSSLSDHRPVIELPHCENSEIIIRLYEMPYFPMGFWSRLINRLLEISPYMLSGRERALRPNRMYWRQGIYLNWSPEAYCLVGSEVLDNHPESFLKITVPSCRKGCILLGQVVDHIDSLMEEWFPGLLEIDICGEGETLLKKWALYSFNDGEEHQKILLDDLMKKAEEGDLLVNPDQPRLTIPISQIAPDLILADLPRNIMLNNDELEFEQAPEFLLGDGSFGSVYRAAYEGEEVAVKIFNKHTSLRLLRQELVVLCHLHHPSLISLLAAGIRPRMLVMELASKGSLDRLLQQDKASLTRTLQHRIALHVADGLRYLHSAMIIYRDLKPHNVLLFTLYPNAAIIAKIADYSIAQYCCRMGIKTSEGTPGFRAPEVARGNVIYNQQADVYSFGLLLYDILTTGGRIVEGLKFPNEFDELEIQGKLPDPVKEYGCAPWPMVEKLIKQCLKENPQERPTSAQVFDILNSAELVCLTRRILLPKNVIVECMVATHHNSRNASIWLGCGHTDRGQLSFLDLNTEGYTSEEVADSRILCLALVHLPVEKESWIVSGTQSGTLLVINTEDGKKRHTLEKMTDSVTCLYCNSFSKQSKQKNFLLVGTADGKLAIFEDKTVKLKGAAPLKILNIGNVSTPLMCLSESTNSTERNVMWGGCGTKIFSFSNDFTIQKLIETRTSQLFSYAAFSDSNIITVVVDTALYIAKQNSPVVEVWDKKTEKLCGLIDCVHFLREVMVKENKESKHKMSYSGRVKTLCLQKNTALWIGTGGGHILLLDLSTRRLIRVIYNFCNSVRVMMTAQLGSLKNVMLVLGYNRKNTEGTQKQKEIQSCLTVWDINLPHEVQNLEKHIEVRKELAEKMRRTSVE
T3 sequence (Q5S007 whole entry): as the sequence (Q5S007 whole entry G2019S) above, with S2019G counted along it
T2 sequence (Q5S007 whole entry): as the sequence (Q5S007 whole entry G2019S) above, with S2019G counted along it

The term DC50 denotes the midpoint of the concentration-degradation curve. Usually Dmax stands for the largest share of the target that was removed. Turning to `C[C@H]1CN(c2cc(-c3[nH]nc4ccc(OC5(C)CC5)cc34)ncn2)CCN1Cc1cn(CC2CCN(c3ccc4c(c3)C(=O)N(C3CCC(=O)NC3=O)C4=O)CC2)nn1` (stereo partly drawn) [Compound 168, 2-(2,6-dioxo-3-piperidyl)-5-[4-[[4-[[(2S)-2-methyl-4-[6-[5-(1-methylcyclopropoxy)-2H-indazol-3-yl]pyrimidin-4-yl]piperazin-1-yl]methyl]triazol-1-yl]methyl]-1-piperidyl]isoindoline-1,3-dione], at G2019S LRRK2 (setting [2]), the DC50 is 10 to 50 nM and the Dmax was < 50%. For the same compound, at wildtype LRRK2 (setting [3]), the greatest degradation seen (Dmax) is < 50% and the DC50 is < 10 nM.

As for `CC1(Oc2ccc3[nH]nc(-c4ccnc(N5CCC(CN6CCC(F)(CN7CCN(c8ccc9c(c8)C(=O)N(C8CCC(=O)NC8=O)C9=O)CC7)CC6)CC5)c4)c3c2)CC1` (centres unmarked) [Compound 82, 2-(2,6-dioxo-3-piperidyl)-5-[4-[[4-fluoro-1-[[1-[4-[5-(1-methylcyclopropoxy)-1H-indazol-3-yl]-2-pyridyl]-4-piperidyl]methyl]-4-piperidyl]methyl]piperazin-1-yl]isoindoline-1,3-dione], at G2019S LRRK2 (setting [4]), the DC50 lay within 10 to 50 nM and the Dmax fell in the range of 50 to 70%. Further, on wildtype LRRK2 (setting [5]), the Dmax was 50 to 70% and the DC50 was 10 to 50 nM.

On to `CC1(Oc2ccc3[nH]nc(-c4cc(N5CC[C@@H](CN6CCN(CC7CCN(c8ccc9c(c8)C(=O)N(C8CCC(=O)NC8=O)C9=O)CC7)CC6)C5)ncn4)c3c2)CC1` (stereo partly drawn) [Compound 167, 2-(2,6-dioxo-3-piperidyl)-5-[4-[[4-[[(3S)-1-[6-[5-(1-methylcyclopropoxy)-1H-indazol-3-yl]pyrimidin-4-yl]pyrrolidin-3-yl]methyl]piperazin-1-yl]methyl]-1-piperidyl]isoindoline-1,3-dione], for which, at G2019S LRRK2 (setting [2]), the DC50 is < 10 nM and the Dmax was 50 to 70%. Also, on wildtype LRRK2 (setting [3]), the Dmax fell in the range of 50 to 70% and the DC50 is < 10 nM.

`C[C@H]1CN(c2cc(-c3n[nH]c4ccc(OC5(C)CC5)cc34)ccn2)CCN1CC1(F)CCN(CC2CCN(c3ccc4c(c3)C(=O)N(C3CCC(=O)NC3=O)C4=O)CC2)CC1` (stereo partly drawn) [Compound 81, 2-(2,6-dioxopiperidin-3-yl)-5-{4-[(4-fluoro-4-{[(2S)-2-methyl-4-{4-[5-(1-methylcyclopropoxy)-1H-indazol-3-yl]pyridin-2-yl}piperazin-1-yl]methyl}piperidin-1-yl)methyl]piperidin-1-yl}-2,3-dihydro-1H-isoindole-1,3-dione]: the DC50 at G2019S LRRK2 (setting [4]) and at wildtype LRRK2 (setting [5]) was < 10 nM throughout. Moreover, the Dmax on G2019S LRRK2 (setting [4]) and on wildtype LRRK2 (setting [5]) was < 50% in each case.

Regarding `CC1(Oc2ccc3[nH]nc(-c4cc(N5CCC(CN6CCN(C(=O)C7CCN(c8ccc9c(c8)C(=O)N(C8CCC(=O)NC8=O)C9=O)CC7)CC6)CC5)ncn4)c3c2)CC1` (centres unmarked) [Compound 94, 2-(2,6-dioxopiperidin-3-yl)-5-(4-{4-[(1-{6-[5-(1-methylcyclopropoxy)-1H-indazol-3-yl]pyrimidin-4-yl}piperidin-4-yl)methyl]piperazine-1-carbonyl}piperidin-1-yl)-2,3-dihydro-1H-isoindole-1,3-dione], at G2019S LRRK2 (setting [4]), the DC50 was < 10 nM and the Dmax lay within 50 to 70%. Also, on wildtype LRRK2 (setting [5]), the Dmax lay in the range of 50 to 70% and the 50% degradation concentration (DC50) is < 10 nM.

Consider `CC1(Oc2ccc3[nH]nc(-c4cc(N5CCC(CN6CC[C@H](CN7CCN(c8ccc9c(c8)C(=O)N(C8CCC(=O)NC8=O)C9=O)CC7)C6)CC5)ncn4)c3c2)CC1` (stereo partly drawn) [Compound 114, 2-(2,6-dioxo-3-piperidyl)-5-[4-[[(3S)-1-[[1-[6-[5-(1-methylcyclopropoxy)-1H-indazol-3-yl]pyrimidin-4-yl]-4-piperidyl]methyl]pyrrolidin-3-yl]methyl]piperazin-1-yl]isoindoline-1,3-dione], for which, on wildtype LRRK2 (setting [5]), the Dmax was in the range of 50 to 70% and the DC50 is < 10 nM.

In the case of `CC1(Oc2ccc3[nH]nc(-c4cc(N5CCC(CN6CCN(CC7CCN(c8cccc9c8C(=O)N(C8CCC(=O)NC8=O)C9=O)CC7)CC6)CC5)ncn4)c3c2)CC1` (centres unmarked) [Compound 146, 2-(2,6-dioxo-3-piperidyl)-4-[4-[[4-[[1-[6-[5-(1-methylcyclopropoxy)-2H-indazol-3-yl]pyrimidin-4-yl]-4-piperidyl]methyl]piperazin-1-yl]methyl]-1-piperidyl]isoindoline-1,3-dione], at wildtype LRRK2 (setting [5]), the Dmax was in the range of 50 to 70% and the DC50 is 10 to 50 nM.

`C[C@H]1CN(c2cc(-c3n[nH]c4ccc(OC5(C)CC5)cc34)ncn2)CCN1C[C@H]1CCN(CC2CCN(c3ccc4c(c3)C(=O)N(C3CCC(=O)NC3=O)C4=O)CC2)C1` (stereo partly drawn) [Compound 111, 2-(2,6-dioxo-3-piperidyl)-5-[4-[[(3S)-3-[[(2S)-2-methyl-4-[6-[5-(1-methylcyclopropoxy)-1H-indazol-3-yl]pyrimidin-4-yl]piperazin-1-yl]methyl]pyrrolidin-1-yl]methyl]-1-piperidyl]isoindoline-1,3-dione]: at wildtype LRRK2 (setting [5]), the Dmax is ≥ 70% and the half-maximal degradation concentration (DC50) was < 10 nM.

Regarding `COc1c(N2CCC(CN3CCN(CC4CCN(c5cc(-c6n[nH]c7cnc(OC8(C)CC8)cc67)ncn5)CC4)CC3)CC2)ccc2c1CN(C1CCC(=O)NC1=O)C2=O` (centres unmarked) [Compound 253, 3-{4-methoxy-5-[4-({4-[(1-{6-[5-(1-methylcyclopropoxy)-1H-pyrazolo[3,4-c]pyridin-3-yl]pyrimidin-4-yl}piperidin-4-yl)methyl]piperazin-1-yl}methyl)piperidin-1-yl]-1-oxo-2,3-dihydro-1H-isoindol-2-yl}piperidine-2,6-dione], the DC50 in assay [1] (setting [6]) is < 10 nM. In addition, the Dmax in assay [1] (setting [7]) is 50 to 70%.

In the case of `CC1(Oc2ccc3[nH]nc(-c4cc(C5CCN(CC6CCN(CC7CCN(c8ccc9c(c8)C(=O)N(C8CCC(=O)NC8=O)C9=O)CC7)CC6)CC5)ncn4)c3c2)CC1` (centres unmarked) [Compound 105, 2-(2,6-dioxo-3-piperidyl)-5-[4-[[4-[[4-[6-[5-(1-methylcyclopropoxy)-1H-indazol-3-yl]pyrimidin-4-yl]-1-piperidyl]methyl]-1-piperidyl]methyl]-1-piperidyl]isoindoline-1,3-dione], the Dmax in assay [1] (24 hours, read-out: **Endogenous WT Dmax (%)) is 50 to 70%. In addition, the DC50 in assay [1] (24 hours, read-out: *Endogenous WT DC50) was ≥ 100 nM.

Regarding `CC1(Oc2cc3c(-c4cc(N5CCC(O[C@H]6C[C@H](OC7CCN(c8ccc9c(c8F)CN(C8CCC(=O)NC8=O)C9=O)CC7)C6)CC5)ncn4)n[nH]c3cn2)CC1` (some centres unmarked) [Compound 218, 3-[4-fluoro-5-[4-[3-[[1-[6-[5-(1-methylcyclopropoxy)-1H-pyrazolo[3,4-c]pyridin-3-yl]pyrimidin-4-yl]-4-piperidyl]oxy]cyclobutoxy]-1-piperidyl]-1-oxo-isoindolin-2-yl]piperidine-2,6-dione], the DC50 in assay [1] (setting [6]) was < 10 nM. The greatest degradation seen (Dmax) in assay [1] (setting [7]) lay in the range of 50 to 70%.

The values are drawn from patent US12559506B2, “Indazole based compounds and associated methods of use” (Arvinas Operations, Inc., priority 2021, dated 2026).
